Results as given in patent US20060019971A1, “Treatment of cardiovascular disease with inhibitors of p38 kinase” (priority 2003, published 2006).

Experiments:
Assay type in all cases: cell-based, human
[1] = tested on: IL-8 secretion from HPBMCs; test: IL-8 secretion from HPBMCs, ELISA; details: 1 μM SD pre-treatment, all the conditions (control, CRP, FCS, CRP plus FCS), 6 hours
Procedure: 8×10^5 HPBMCs were plated in 96-well. After 1 hour medium was removed and cells were incubated with or without 10 μg/ml of purified human CRP in serum-free RPMI 1640. In parallel experiments cells were treated with 10% FCS together with the CRP treatment. For the p38 antagonism, p38 inhibitor was added to a final concentration of 1 μM in the parallel treatment. After 6 hours conditioned medium were collected and IL-6 and IL-8 levels were determined by ELISA. […] 5×10^6 HPBMCs were plated in 6-well. After 1 hour medium was removed and cells were treated with vehicle or 1 μM p38 inhibitor in RPMI 1640 medium. After 1 hour cells were stimulated with 10% FCS only or 10 μg/ml CRP plus 10% FCS. After 2 hours RNA was extracted from the cells and IL-8 expression level was determined by real-time PCR as described in the Experimental section.
Cryopreserved human peripheral blood monocytes (HPBMCs, from Biowitker, Walkersvill, Md.) were thawed and washed twice in RPMI 1640. Cells were plated in tissue culture plates and incubated in 5% CO2 at 37 C. […]
(§1) Conditioned media from the treated cells were collected (6 to 20 hrs), and the level of secreted interleukin 6 (IL-6), interleukin 1 beta (IL-1 β), tumor necrosis factor alpha (TNFα), and interleukin 8 (IL-8) was determined by ELISA according to the manufacturer's instruction (Biosource International, Camarillo, Calif.). […]

[2] = tested on: TNFα secretion from HPBMCs; test: TNFα secretion from HPBMCs, ELISA; details: 1 μM SD, 6 hours
Procedure: (§2) 5×10^6 HPBMCs were plated in 6-well. After 1 hour medium was removed and cells were treated with vehicle or 1μM p38 inhibitor in RPMI 1640 medium. After 1 hour cells were stimulated with 10% FCS only or 10 μg/ml CRP plus 10% FCS. After 6 hours conditioned medium was collected and IL-1b and TNFa levels were determined by ELISA. […] 5×10^6 HPBMCs were plated in 6-well. After I hour medium was removed and cells were treated with vehicle or […] p38 inhibitor in RPMI 1640 medium. After 1 hour cells were stimulated with 10% FCS only or 10 μg/ml CRP plus 10% FCS. After 2 hours RNA was extracted from the cells and TNFa (c) and IL-1b (d) expression levels were determined by real-time PCR as described in the Experimental section. […]
as §1
TNFα and IL-β are initial inflammatory cytokines produced when monocytes are activated during infalmmation. […] HPBMCs were incubated with either 10% FCS or CRP plus 10% FCS for 6 hours and secreted cytokines TNFα and IL-1β were measured by ELISA. […]

IL-1β mRNA in HPBMCs = test: IL-1β gene expression in HPBMCs, real-time PCR; details: 1 μM SD, 2 hrs
Procedure: as §2
RNA was extracted from the cells using Qiagen RNA extraction kit according to the manufacturer's instruction. The expression of pro-inflammatory genes IL-1β, IL-6, IL-8, TNFα, COX-2, ET-1, TF were assessed by real-time PCR. […]
Real-time RT-PCR was performed in a two-step manner. cDNA synthesis and real-time detection were carried out in a PTC-100™ Thermal Cycler (MJ Research Inc, Waltham, Mass.) and an ABI Prism™ 7700 Sequence Detection System (Applied Biosystems, Foster City, Calif.), respectively. […] Relative quantitation of gene expression was performed using the relative standard curve method. […]

C[C@@H]1CN(Cc2ccc(F)cc2)[C@@H](C)CN1C(=O)c1cc2c(C(=O)C(=O)N(C)C)c[nH]c2cc1Cl [Compound 162]
inhibition of IL-8 secretion [1]: almost completely inhibited | FCS induced TNFα secretion, sensitivity to p38 inhibition ([2]; 10% FCS): sensitive | inhibition of CRP-invoked TNFα secretion ([2]; CRP plus 10% FCS): strongly inhibited | inhibition of FCS induced expression of IL-1β gene (IL-1β mRNA in HPBMCs): attenuated
